We go through one compound from ChEMBL document CHEMBL2311387, “Dose-dependent interaction of trans-resveratrol with biomembranes: effects on antioxidant property” (J Med Chem, 2013).

Data set [1] can be described thus: Binding affinity to planer lipid bilayer assessed as reduction in charge transfer resistance by admittance spectroscopic analysis. It counts as physicochemical.
The nature of data set [2]: Binding affinity to curcumin encapsulated liposomes assessed as curcumin release from unilamellar vesicles after 20 mins by NMR spectroscopic analysis.
A short description of data set [3]: Antioxidant activity in planer lipid bilayer membrane assessed as inhibition of DPPH-induced reduction in diameter of semicircle at 50 to 100 uM by admittance spectroscopic analysis. It counts as functional, cell membranes.
Data set [4] in a line: Binding affinity to planer lipid bilayer assessed as increase in anodic current by cyclic voltammetric analysis. It counts as physicochemical.
Data set [5] can be described thus: Binding affinity to planer lipid bilayer assessed as change in diameter of semicircle pattern by admittance spectroscopic analysis. The class given is physicochemical.
The nature of data set [6]: Antioxidant activity in planer lipid bilayer membrane assessed as reduction in 100 uM DPPH-induced charge transfer resistance at 100 uM by admittance spectroscopic analysis. It counts as functional, cell membranes. The arrangement: scale not given: the % may be the effect or the level left. For orientation: The DPPH test is a chemical assay of radical scavenging.
Data set [7] can be described thus: Induction of budding morphology in human erythrocytes up to 100 uM after 1 hr by cold field emission scanning electron microscopic analysis. The class given is cell-based. The conditions noted are these: erythrocyte.
Data set [8] can be described thus: Induction of morphological changes in human erythrocytes at => 60 uM after 1 hr by cold field emission scanning electron microscopic analysis. It counts as cell-based. The conditions noted are these: erythrocyte.
A short description of data set [9]: Binding affinity to planer lipid bilayer assessed as change in height of semicircle pattern by admittance spectroscopic analysis. It counts as physicochemical.
Data set [10] in a line: Antioxidant activity in planer lipid bilayer membrane assessed as reduction in 50 uM DPPH-induced charge transfer resistance at 50 uM by admittance spectroscopic analysis. It counts as functional, cell membranes. Details: scale not given: the % may be the effect or the level left.
Data set [11] can be described thus: Antioxidant activity in planer lipid bilayer membrane assessed as reduction in 100 uM DPPH-induced charge transfer resistance at 50 uM by admittance spectroscopic analysis. The class given is functional, cell membranes. The arrangement: scale not given: the % may be the effect or the level left.
Data set [12] is described as follows: Binding affinity to planer lipid bilayer assessed as reduction in diameter of semicircle pattern at up to 60 uM by admittance spectroscopic analysis. It counts as physicochemical.
Data set [13] can be described thus: Antioxidant activity in planer lipid bilayer membrane assessed as reduction in 50 uM DPPH-induced charge transfer resistance at 100 uM by admittance spectroscopic analysis. It counts as functional, cell membranes. The arrangement: scale not given: the % may be the effect or the level left.
Data set [14] can be described thus: Induction of blebbing morphology in human erythrocytes up to 100 uM after 1 hr by cold field emission scanning electron microscopic analysis. The class given is cell-based. As to conditions: erythrocyte.
For another data set, the system named is MCF7. In words: Cytotoxicity against human MCF7 cells at 100 uM after 24 hrs by MTS assay. It counts as cell-based. As to conditions: mcf7, 24 h.
A short description of data set [15]: Induction of destruction morphology in human erythrocytes up to 100 uM after 1 hr by cold field emission scanning electron microscopic analysis. The class given is cell-based. As to conditions: erythrocyte.
Data set [16] deals with Radical scavenging activity. Kind of data set: Antioxidant activity assessed as DPPH free radical scavenging activity at >100 uM after 45 mins by UV-visible spectrophotometric analysis relative to vitamin C. It counts as functional.
Data set [17] can be described thus: Binding affinity to planer lipid bilayer assessed as increase in cathodic current by cyclic voltammetric analysis. It counts as physicochemical.
A short description of data set [18]: Binding affinity to curcumin encapsulated liposomes assessed as curcumin release from unilamellar vesicles at 100 uM after 20 mins NMR spectroscopic analysis.
Data set [19] can be described thus: Antioxidant activity in planer lipid bilayer membrane assessed as inhibition of DPPH-induced reduction in height of semicircle at 50 to 100 uM by admittance spectroscopic analysis. It counts as functional, cell membranes.
Data set [20] concerns Radical scavenging activity. Kind of data set: Antioxidant activity assessed as DPPH free radical scavenging activity at <100 uM after 45 mins by UV-visible spectrophotometric analysis relative to vitamin C. The class given is functional.

Structures are written as SMILES. Activity calls are given as the source filed them. The rule behind the calls is not given here.

For the compound `Oc1ccc(/C=C/c2cc(O)cc(O)c2)cc1` [RESVERATROL], the Activity entry in data set [1] is “Active”; in data set [2], “Dose-dependent effect”; in data set [4] it was “Dose-dependent effect”; in data set [5], “Dose-dependent effect”; in [6] it was 10.9%; in data set [7] it was “Toxic”. Besides, the Activity result in [8] is “Non-toxic”; in [9], “Dose-dependent effect”; in data set [10], 19.5%; in [11] it was 22%; in [12] it was “Active”; in [13], 7.7%. Moreover, the Activity entry in data set [14] was “Toxic”; with MCF7, 50%; in data set [15] it was “Toxic”; in data set [17], “Dose-dependent effect”; in data set [18], 17%. In addition, the inhibition entry in data set [3] and in data set [19] was “Active” each time. Besides, the result in data set [16] and in [20] was Active.
